Molecules are shown by their SMILES.

The test system of data set [1] is α-SMA, CD31, endothelin-I, fibronectin, VE-cadherin, phospho-eNOS and total eNOS. As to the kind of experiment: Protein expression (western blot, immunocytochemistry) in 3D HTM/SC constructs. The note with it: levcromakalim 1, 10 or 100 μM, Y-27632 10 μM. Type of data set: cell-based, human. As for the experimental part: Bioengineered 3D conventional outflow tract constructs using 4 donors (ages 47-91) were treated with […] (5 ng/mL) for 6 days. […] Protein expression of α-smooth muscle actin (α-SMA), CD31, endothelin-I, fibronectin, VE-cadherin, phospho-eNOS and total eNOS was analyzed via western blot. Cellular expression of α-SMA, fibronectin, phospho-eNOS and total eNOS was determined by immunocytochemistry and confocal microscopy. Statistical significance was determined by one-way ANOVA with a Tukey's multiple comparisons test, or by two-way ANOVA.
(In general: Immunoblotting shows a protein as a band on a membrane.)

The target of data set [2] is T1, human Kir6.2/SUR2B KATP channel (Homo sapiens, UniProt O60706).
T1 construct: expressed in transfected cells
As to the kind of experiment: FLIPR membrane potential assay in HEK-Kir6.2/SUR2B cells. The note with it: glibenclamide 10 μM. The class given is cell-based. As for the experimental part:
The ability of CKLP1 and the active moiety of CKLP1, leveromakalim, to pharmacologically modulate the function of the human ATP-sensitive potassium channel comprised of Kir6.2 (encoded by the human gene KCNJ11) coupled to the sulfonylurea receptor SUR2B (encoded by the human gene ABCC9) was studied.
Compounds were dissolved up to 10 mM stock solution in DMSO. Ten-point concentration response curves were generated at 100× concentration in 100% DMSO. Compound source plates were made by serially diluting 10 mM compound stocks in DMSO to generate a progressive semilog dilution schema. Dose response stock plate (10 μL) were then transferred into assay plates containing 90 μL of assay buffer, generating 10× working concentrations. Final assay test concentration ranges of 100 μM to 0.003 μM with a final DMSO concentration of 1.0%.
Human embryonic kidney (HEK) cells stably expressing human Kir6.2/SUR2B KATP channel subunits were plated onto 96 well, black poly-d-lysine (PDL)-coated microplates and maintained in growth media the day prior to use for experiments. Media was removed from the plates and 90 μL of 1× stock of the membrane potential sensitive fluorescent dye FMP-Blue resuspended in assay buffer (EBSS—in mM: NaCl 145, KCl 2, Glucose 5, CaCl2) 1.8, MgCl2 0.8, HEPES 10, pH 7.4 with NaOH, 290-300 mOSm) was added to the cells. Cells were incubated at room temperature, protected from light, for 45-60 minutes. After the incubation period, cell, test compound and glibenclamide plates were loaded onto the fluorescence plate reader (FLIPR-TETRA™) and the scanning initiated. The FLIPR measured a 10 second baseline and then added 10 μL of 10× the final desired concentration of test agent. Changes in fluorescence were monitored for an additional 5 minutes. After the 5-minute compound incubation, 10 μL of the receptor inhibitor glibenclamide was added to the cell plate (10 uM final glibenclamide concentration). Changes in fluorescence was then monitored for an additional 5 minutes.
Compound modulation of Kir6.2/SUR2B KATP channel mediated changes in cellular membrane potential was determined as follows. After the administration of compound, FMP fluorescence was monitored for a 5-minute period. The following parameters were recorded and exported from the FLIPR: the average relative fluorescence response (RFU) of 5 images taken at the 5-minute point in the assay with the average background EBSS buffer response subtracted. […] Test agent effect was calculated as % activation using the following formula: […]
Curve fits were performed in GraphPad Prism graphing software using a 4-parameter, variable slope fit equation.

A further data set has as its system single KATP channels. The settings on record: in the presence of ATP; Brayden et al. 1991; cited from earlier work.
For data set [3] the following is noted: cited from earlier work.

T1 sequence (O60706 1-1549 isoform O60706-2): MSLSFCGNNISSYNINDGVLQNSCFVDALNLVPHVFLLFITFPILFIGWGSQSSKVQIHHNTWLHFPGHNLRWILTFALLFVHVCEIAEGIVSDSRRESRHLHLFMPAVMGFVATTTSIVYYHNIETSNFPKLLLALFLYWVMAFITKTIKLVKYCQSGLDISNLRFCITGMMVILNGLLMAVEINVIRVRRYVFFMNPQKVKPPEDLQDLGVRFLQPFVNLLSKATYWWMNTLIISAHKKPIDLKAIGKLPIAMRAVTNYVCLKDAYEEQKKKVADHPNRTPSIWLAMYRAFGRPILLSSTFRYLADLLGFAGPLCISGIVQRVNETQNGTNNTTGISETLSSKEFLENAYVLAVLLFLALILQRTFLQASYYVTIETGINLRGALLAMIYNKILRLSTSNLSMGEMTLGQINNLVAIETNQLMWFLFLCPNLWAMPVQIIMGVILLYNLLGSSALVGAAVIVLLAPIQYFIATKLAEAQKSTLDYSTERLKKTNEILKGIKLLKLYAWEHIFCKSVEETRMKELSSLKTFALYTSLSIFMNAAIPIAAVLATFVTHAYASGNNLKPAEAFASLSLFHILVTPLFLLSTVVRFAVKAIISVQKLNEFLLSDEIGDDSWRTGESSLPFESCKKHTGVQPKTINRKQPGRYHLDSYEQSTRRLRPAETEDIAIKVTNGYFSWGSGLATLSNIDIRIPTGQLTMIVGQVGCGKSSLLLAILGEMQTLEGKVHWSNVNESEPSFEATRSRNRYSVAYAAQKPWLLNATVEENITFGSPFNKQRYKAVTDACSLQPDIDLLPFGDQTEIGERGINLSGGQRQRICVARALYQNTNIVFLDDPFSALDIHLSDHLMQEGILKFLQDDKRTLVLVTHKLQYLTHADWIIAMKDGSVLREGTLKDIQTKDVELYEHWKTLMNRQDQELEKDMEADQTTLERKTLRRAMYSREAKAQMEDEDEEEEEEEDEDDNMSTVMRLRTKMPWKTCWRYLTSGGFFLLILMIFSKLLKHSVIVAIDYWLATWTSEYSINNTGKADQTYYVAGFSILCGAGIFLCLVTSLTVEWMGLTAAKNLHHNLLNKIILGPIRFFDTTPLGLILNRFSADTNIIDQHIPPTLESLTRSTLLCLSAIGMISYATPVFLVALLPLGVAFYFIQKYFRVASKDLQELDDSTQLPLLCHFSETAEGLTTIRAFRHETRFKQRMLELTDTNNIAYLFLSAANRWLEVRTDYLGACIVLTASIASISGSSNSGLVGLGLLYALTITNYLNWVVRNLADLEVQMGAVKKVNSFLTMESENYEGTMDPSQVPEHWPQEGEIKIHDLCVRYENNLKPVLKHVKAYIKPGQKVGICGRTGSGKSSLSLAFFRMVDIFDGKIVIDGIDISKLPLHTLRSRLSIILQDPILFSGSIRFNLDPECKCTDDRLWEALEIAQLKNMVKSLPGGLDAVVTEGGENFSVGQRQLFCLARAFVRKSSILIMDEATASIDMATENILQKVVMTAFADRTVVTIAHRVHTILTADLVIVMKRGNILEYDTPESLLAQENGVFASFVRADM
T1 sequence (Q14654 whole entry partner): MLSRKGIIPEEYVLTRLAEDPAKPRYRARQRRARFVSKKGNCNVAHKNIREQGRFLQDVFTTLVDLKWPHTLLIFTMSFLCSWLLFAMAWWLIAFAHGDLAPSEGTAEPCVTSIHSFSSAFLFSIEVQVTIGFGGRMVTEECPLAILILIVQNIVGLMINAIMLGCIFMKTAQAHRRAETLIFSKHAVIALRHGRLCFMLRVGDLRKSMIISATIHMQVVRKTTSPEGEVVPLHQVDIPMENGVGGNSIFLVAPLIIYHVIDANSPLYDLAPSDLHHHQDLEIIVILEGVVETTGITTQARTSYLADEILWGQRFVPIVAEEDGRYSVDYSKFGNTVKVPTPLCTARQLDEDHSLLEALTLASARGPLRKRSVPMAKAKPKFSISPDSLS

In the case of `C[C@@H](N)[C@H]1CC[C@H](C(=O)Nc2ccncc2)CC1` [Y-27632], the “expression of the cell adhesion proteins CD31 and VE-Cadherin” value is listed as “significantly decreased” in data set [1] and “decreased expression” in data set [1] (listed as Y27632).

As for `CC1(C)Oc2ccc(C#N)cc2C(N2CCCC2=O)C1O` (stereo not drawn) [Cromakalim, cromakalim], in data set [2], the “hyperpolarization reversed by coadministration of glibenclamide” value is given as “reversed”. Besides, in the data set with single KATP channels, the “increase of open-state probability (Popen) of single KATP channels” value is “more than 9 fold”. Moreover, the solubility in water entry in data set [3] was “substantially insoluble in water”.

`CC(N/C(=N\C#N)Nc1ccncc1)C(C)(C)C` (stereo not drawn) [Pinacidil, pinacidil, reference compound]: the “hyperpolarization reversed by coadministration of glibenclamide” value in data set [2] is listed as “reversed”.

Source of the values: US20220387457A1 (Qlaris Bio, Inc., priority 2020, published 2022).
